Measurements published in patent publication US20050171185A1, “Indole derivatives” (Fujisawa Pharmaceutical Co., Ltd., a Japanese corporation, priority 1998, published 2005).

Test system: db/db mice
Assay: Test for activity of decreasing plasma glucose using db/db mice
Format: in vivo
Details: female db/db mice, test compound mixed in powdered chow (0.01%) for 14 days, dose 3.2 mg/kg; difference between db/db and +/+ mouse groups defined as 100%
Description: Test Example: Test for Activity of Decreasing Plasma Glucose Using db/db Mice
3-(1-bromonaphthalen-2-ylmethyl)-5-((5-chloro-2-thiophenylsulfonyl)carbamoyl)-2-methylindole (Compound (23))
Five-week-old female mice [C57BL/KsJ-dbm db+/db+, C57BL/KsJ-dbm +m/+m (Jackson Laboratory)] were purchased, and were kept for 2 to 3 weeks. Then, these mice were used in the test.
A test compound was mixed with a powdered chow (CE-2, made by Nippon Clea) using a mortar. The mixing ratio was 0.01%. The mixed chow was changed twice a week for each group. The feed amount and the remaining amount were recorded, and the intake was calculated from the difference therebetween.
The female db/db mice were grouped according to the body weight, the plasma glucose, and the plasma triglyceride concentrations. […] Plasma glucose, triglyceride, and insulin concentrations were measured on day 0 and day 14 as well as plasma glucose and triglyceride concentrations on day 7. The body weight was measured on day 0, day 7, and day 14. […]
The plasma glucose was measured by a glucose oxidase method (Glucose CII-Test Wako made by Wako Pure Chemical Industries, Ltd.) using from 10 to 15 μl of plasma. The plasma triglyceride concentration was measured by a GPO-p-chlorophenol method (Triglyceride G-Test Wako made by Wako Pure Chemical Industries, Ltd.) or a GPO-DAOS method (Triglyceride E-Test Wako) using from 10 to 15 μl of plasma. […]

Cc1[nH]c2ccc(C(=O)NS(=O)(=O)c3ccc(Cl)s3)cc2c1Cc1ccc2ccccc2c1Br [Compound (23), 3-((1-bromonaphthalen-2-yl)methyl)-5-((5-chloro-2-thiophenesulfonyl)carbamoyl)-2-methylindole]
TG concentration-decreasing activity (rate of decrease in plasma triglyceride): 9% | plasma glucose decreasing activity (rate of decrease in plasma glucose): 19%
